Tests used:
[1] = Stability test of QC samples; type: physicochemical, rat
[2] = Pharmacokinetics in rat plasma; type: in vivo, Wistar rats; conditions: for AUC(0-t): AUC0-t; for AUC(0-inf): AUC0-∞; for CL/F: CLz/F; for MRT last: MRT0-t; for MRT inf: MRT0-∞
[3] = Wistar, rat, plasma, po, 100 mg/kg, FS-C: normal (blank) rats, oral FS 100 mg kg^−1, n = 6
[4] = Wistar, rat, plasma, po, 100 mg/kg, FT-C: normal (blank) rats, oral FT 100 mg kg^−1, n = 6

O=C(O)/C=C/c1ccc(O)c(O)c1 [Caffeic acid]
Stability, Accuracy (RE, %) ([1]; Store at 4 °C for 24 h, high concentration QC sample in rat plasma): 2.95% | Stability, Accuracy (RE, %) ([1]; Store at 4 °C for 24 h, low concentration QC sample in rat plasma): 6.27% | Stability, Accuracy (RE, %) ([1]; Store at 4 °C for 24 h, medium concentration QC sample in rat plasma): −2.07% | Stability, Accuracy (RE, %) ([1]; Store at room temperature for 12 h, high concentration QC sample in rat plasma): 5.38% | Stability, Accuracy (RE, %) ([1]; Store at room temperature for 12 h, low concentration QC sample in rat plasma): −2.45% | Stability, Accuracy (RE, %) ([1]; Store at room temperature for 12 h, medium concentration QC sample in rat plasma): 2.52% | Stability, Accuracy (RE, %) ([1]; Store at −20 °C for 20 days, high concentration QC sample in rat plasma): 3.39% | Stability, Accuracy (RE, %) ([1]; Store at −20 °C for 20 days, low concentration QC sample in rat plasma): −12.26% | Stability, Accuracy (RE, %) ([1]; Store at −20 °C for 20 days, medium concentration QC sample in rat plasma): 0.41% | Stability, Accuracy (RE, %) ([1]; Three freeze-thaw cycles, high concentration QC sample in rat plasma): 12.71% | Stability, Accuracy (RE, %) ([1]; Three freeze-thaw cycles, low concentration QC sample in rat plasma): 3.68% | Stability, Accuracy (RE, %) ([1]; Three freeze-thaw cycles, medium concentration QC sample in rat plasma): 11.31% | AUC(0-t) [2, 3]: 37.2 ± 11.5 ng·h/mL | AUC(0-t) [2, 4]: 31.7 ± 12 ng·h/mL | AUC(0-inf) [2, 3]: 40.5 ± 18.6 ng·h/mL | AUC(0-inf) [2, 4]: 44.4 ± 30.2 ng·h/mL | CL/F [2, 3]: 5.67 mL/min/kg | CL/F [2, 4]: 10.2 mL/min/kg | Cmax [2, 3]: 5.78 ± 0.23 ng/mL | Cmax [2, 4]: 4.65 ± 0.38 ng/mL | MRT last [2, 3]: 5.78 ± 2.57 h | MRT last [2, 4]: 5.61 ± 2.5 h | MRT inf [2, 3]: 7.21 ± 5.95 h | MRT inf [2, 4]: 10.7 ± 10.2 h | half-life ([2]; Wistar, rat, plasma, po, 100 mg/kg, T1/2, FS-C: normal (blank) rats, oral FS 100 mg kg^−1, n = 6): 3.62 ± 4.88 h | Tmax [2, 3]: 0.72 ± 0.31 h | Tmax [2, 4]: 0.61 ± 0.68 h | Tmax ([2]; Wistar, rat, plasma, po, 100 mg/kg, control group, after oral administration of FS or FT): > 0.47 h | Cmax in FT compared with FS ([2]; normal group, p < 0.01, 0.05): significantly lower | Cmax after modeling compared with control group ([2]; oral administration of FS): decreased | AUC0-t after modeling compared with control group ([2]; oral administration of FT): increased
